These results are taken from patent publication US20080206332A1, “SUSTAINED RELEASE ORAL DOSAGE FORMS OF A PRODRUG OF R-BACLOFEN AND METHODS OF TREATMENT” (priority 2007, published 2008).

The conditions of data set [1]: in vivo; cited from earlier work.
The nature of data set [2]: Pharmacokinetics of R-baclofen in dogs after oral dosage forms of compound (1). Also on record: species or system Beagle dogs. The note with it: dog, in vivo, iv, 10 mg-eq/kg R-baclofen administered intravenously. How it is done: The dogs were fasted overnight before the study and for 4 hours post-dosing. Blood samples (1 mL) were obtained via the femoral vein at intervals over 24 hours after oral dosing. Blood was quenched immediately using acetonitrile with 1% formic acid and then frozen at −20° C. until analyzed.
The concentration of R-baclofen in quenched whole blood was determined using an API 2000 LC/MS/MS instrument equipped with a Shimadzu binary pump and a Leap CTC autosampler. A Phenomenex Hydro-RP 4.6×50 mm column operating at room temperature was used. The mobile phases were (A) water with 0.1% formic acid, and (B) acetonitrile with 0.1% formic acid. The gradient condition was: 5% B for 0.5 min, then to 95% B in 1.8 min; then maintained at 95% B for 1.2 min. The mobile phase was then returned to 5% B for 2 min. A TurbolonSpray source was used on the API 2000. The analysis was done in positive ion mode and an MRM transition of m/z 214/151 was used in the analysis of R-baclofen. Ten (10) μL of the blood sample was injected. The peaks were integrated using Analyst™ Software ([…]) to provide the concentration of R-baclofen in the blood sample.
Pharmacokinetic profiles of sustained release oral dosage forms prepared according to Examples 1-4 at a dose of 10 mg compound (1) following oral administration to dogs is shown in FIG. 5.

The conditions of data set [3]: 2 mg t.i.d. R-baclofen equivalent to racemic baclofen 10 mg t.i.d.; cited from earlier work.
For data set [4] the following is noted: clinical trials (Castell et al.); cited from earlier work.
The conditions of data set [5]: dosed either orally or directly into the colon of a mammal; cited from earlier work.

`NCC(CC(=O)O)c1ccc(Cl)cc1` (racemic) [baclofen, (±)-4-Amino-3-(4-chlorophenyl)butanoic acid]: the elimination half-life in data set [1] was 3 to 4 h.

`NC[C@H](CC(=O)O)c1ccc(Cl)cc1` [R-baclofen, R-(−)-baclofen] displayed an AUC(0-inf) in data set [2] of 1980 ng·h/mL. Also, the “potency of orally administered R-baclofen relative to orally administered racemic baclofen” value in data set [3] is “about 5 times”.

Regarding `CC(C)C(=O)O[C@@H](OC(=O)NC[C@H](CC(=O)O)c1ccc(Cl)cc1)C(C)C` [Compound (1), (3R)-4-{[(1S)-2-methyl-1-(2-methylpropanoyloxy)propoxy]carbonylamino}-3-(4-chlorophenyl)butanoic acid], the “reflux episodes in clinical trials” value in data set [4] was “reduce reflux episodes”. For the same compound, the “bioavailability as R-baclofen” value in data set [5] is on record as “high bioavailability”.
